{"source": "paper PMC10341550", "about": "“Beta-Secretase 1 Recruits Amyloid-Beta Precursor Protein to ROCK2 Kinase, Resulting in Erroneous Phosphorylation and Beta-Amyloid Plaque Formation” (International Journal of Molecular Sciences, 2023)", "origin": "cited, not measured here", "conditions_in_all_cases": "cited from earlier work", "key": {"[1]": {"system": "Aβ production in an AD mouse brain", "from_the_text": "Alzheimer’s disease is currently the leading cause of dementia, with no effective treatment. […] Although Aβ cannot account for all features of Alzheimer’s disease, reducing Aβ production or accumulation is a major therapeutic strategy to confront the disease. The accumulation of Aβ peptides in senile plaques is the consequence of pathological processing of APP. There are two major pathways of APP processing: a non-amyloidogenic pathway invo ..."}, "protein kinase CK2α": {"system": "protein kinase CK2α", "from_the_text": "Despite decades of intensive research, there is no efficient drug to prevent or cure Alzheimer’s disease. […] During the processing of APP, its cleavage by BACE1 is the rate-limiting step [16]; therefore, the inhibition of BACE1 could be a trivial solution. The development of small molecular inhibitors against BACE1 was set back with a series of unwanted side effects. Previously, it was shown that pharmacological inhibition of ROCK2 activity diminishes sAPPβ pro ..."}, "ROCK2": {"system": "ROCK2"}}, "data": [{"smiles": "CN(C)CCOc1cc(-c2cn[nH]c2)ccc1NC(=O)C1COc2ccccc2O1", "note": "(stereo not drawn) [SR3677]", "values": [{"measurement": "Aβ production", "setting": "[1]", "value": "diminished the production of Aβ in an AD mouse brain"}]}, {"smiles": "CC(C)NC(=O)COc1cccc(-c2nc(Nc3ccc4[nH]ncc4c3)c3ccccc3n2)c1", "note": "[belumosudil]", "values": [{"measurement": "inhibition of protein kinase CK2α (in words)", "setting": "protein kinase CK2α", "value": "inhibition of the protein kinase CK2α"}, {"measurement": "ROCK2 inhibition selectivity (in words)", "setting": "ROCK2", "value": "highly selective"}]}]}
